Reference: patent US20180000085A1, “USE OF PICOLINAMIDE COMPOUNDS WITH FUNGICIDAL ACTIVITY” (DOW AGROSCIENCES LLC, priority 2014, published 2018)

Legend:
[1] = system: Zymoseptoria tritici; assay: Leaf blotch of wheat (SEPTTR) disease control on wheat seedlings; assay type: in vivo; set-up: key to SEPTTR 1DP, HV activity at 100 ppm (% control rating) / SEPTTR 3DC, HV activity at 100 ppm (% control rating) / SEPTTR disease control, 1DP / SEPTTR disease control, 3DC / SEPTTR 1DP disease control rating, HV activity / SEPTTR 3DC disease control rating, HV activity / SEPTTR 3DC, LV activity at 125.1 g/H (% Control rating) / SEPTTR 1DP, LV activity at 125.1 g/H (% Control rating) / SEPTTR 1DP disease control rating, LV activity at 125.1 g/H / SEPTTR 3DC disease control rating, LV activity at 125.1 g/H / SEPTTR 3DC disease control rating, HV activity at 100 ppm / SEPTTR 1DP disease control rating, HV activity at 100 ppm / HV activity at 100 ppm SEPTTR 3DC (disease control rating) / HV activity at 100 ppm SEPTTR 1DP (disease control rating) / LV activity at 125.1 g/H SEPTTR 1DP (disease control rating) / LV activity at 125.1 g/H SEPTTR 3DC (disease control rating): A: > 80; B: ≤ 80; C: Not Tested; D: No Activity Observed in the Reported Assay; conditions: for LV activity at 125.1 g/H SEPTTR 1DP (disease control rating) / LV activity at 125.1 g/H SEPTTR 3DC (disease control rating) / SEPTTR 1DP disease control rating, LV activity at 125.1 g/H / SEPTTR 3DC disease control rating, LV activity at 125.1 g/H / SEPTTR 1DP, LV activity at 125.1 g/H (% Control rating) / SEPTTR 3DC, LV activity at 125.1 g/H (% Control rating): low volume application; for LV activity at 125.1 g/H SEPTTR 1DP (disease control rating) / SEPTTR 1DP disease control rating, HV activity / SEPTTR 1DP, LV activity at 125.1 g/H (% Control rating): 1 Day Protectant; for LV activity at 125.1 g/H SEPTTR 1DP (disease control rating) / LV activity at 125.1 g/H SEPTTR 3DC (disease control rating) / SEPTTR 1DP disease control rating, HV activity / SEPTTR 3DC disease control rating, HV activity: wheat leaf blotch; for LV activity at 125.1 g/H SEPTTR 3DC (disease control rating) / SEPTTR 3DC disease control rating, HV activity / SEPTTR 3DC, LV activity at 125.1 g/H (% Control rating): 3 Day Curative; for SEPTTR 1DP disease control rating, HV activity / SEPTTR 3DC disease control rating, HV activity: HV application at 100 ppm
[2] = system: Puccinia triticina; assay: Wheat brown rust (PUCCRT) disease control on wheat seedlings; assay type: in vivo; set-up: key to PUCCRT 3DC, HV activity at 100 ppm (% control rating) / PUCCRT disease control, 3DC / PUCCRT 1DP disease control rating, HV activity / PUCCRT 3DC disease control rating, HV activity / PUCCRT 3DC, LV activity at 125.1 g/H (% Control rating) / PUCCRT 1DP, LV activity at 125.1 g/H (% Control rating) / PUCCRT 3DC disease control rating, LV activity at 125.1 g/H / PUCCRT 1DP disease control rating, LV activity at 125.1 g/H / PUCCRT 3DC disease control rating, HV activity at 100 ppm / PUCCRT 1DP disease control rating, HV activity at 100 ppm / HV activity at 100 ppm PUCCRT 3DC (disease control rating) / LV activity at 125.1 g/H PUCCRT 1DP (disease control rating) / LV activity at 125.1 g/H PUCCRT 3DC (disease control rating): A: > 80; B: ≤ 80; C: Not Tested; D: No Activity Observed in the Reported Assay; conditions: for LV activity at 125.1 g/H PUCCRT 1DP (disease control rating) / LV activity at 125.1 g/H PUCCRT 3DC (disease control rating) / PUCCRT 1DP disease control rating, LV activity at 125.1 g/H / PUCCRT 3DC disease control rating, LV activity at 125.1 g/H / PUCCRT 1DP, LV activity at 125.1 g/H (% Control rating) / PUCCRT 3DC, LV activity at 125.1 g/H (% Control rating): low volume application; for LV activity at 125.1 g/H PUCCRT 1DP (disease control rating) / PUCCRT 1DP disease control rating, HV activity / PUCCRT 1DP, LV activity at 125.1 g/H (% Control rating): 1 Day Protectant; for LV activity at 125.1 g/H PUCCRT 1DP (disease control rating) / LV activity at 125.1 g/H PUCCRT 3DC (disease control rating) / PUCCRT 1DP disease control rating, HV activity / PUCCRT 3DC disease control rating, HV activity: wheat brown rust; for LV activity at 125.1 g/H PUCCRT 3DC (disease control rating) / PUCCRT 3DC disease control rating, HV activity / PUCCRT 3DC, LV activity at 125.1 g/H (% Control rating): 3 Day Curative; for PUCCRT 1DP disease control rating, HV activity / PUCCRT 3DC disease control rating, HV activity: HV application at 100 ppm
[3] = high volume application, 100 ppm, 1 day protectant
[4] = high volume application, 100 ppm, 3 day curative

COCC(OC(=O)C(C)NC(=O)c1nccc(OC)c1OCOC(C)=O)C(Oc1ccccc1)C(C)C (centres unmarked) [Cmpd 1090]
LV activity at 125.1 g/H SEPTTR 1DP (disease control rating) [1]: D | LV activity at 125.1 g/H SEPTTR 3DC (disease control rating) [1]: D | LV activity at 125.1 g/H PUCCRT 1DP (disease control rating) [2]: D | LV activity at 125.1 g/H PUCCRT 3DC (disease control rating) [2]: B (≤ 80)

CCCOC(CC)C(Oc1ccccc1)C(C)OC(=O)C(CC(C)C)NC(=O)c1nccc(OC)c1OCOC(C)=O (centres unmarked) [Cmpd 448]
SEPTTR 1DP disease control rating, HV activity [1]: B (≤ 80) | SEPTTR 3DC disease control rating, HV activity [1]: B (≤ 80) | PUCCRT 1DP disease control rating, HV activity [2]: A (> 80) | PUCCRT 3DC disease control rating, HV activity [2]: B (≤ 80)

COc1ccnc(C(=O)NC(C)C(=O)OC(C)C(Oc2ccccc2)c2ccccc2)c1OCOC(C)=O (centres unmarked) [Cmpd 872]
SEPTTR 1DP disease control rating, LV activity at 125.1 g/H ([1]; 1 day protectant): A (> 80) | SEPTTR 3DC disease control rating, LV activity at 125.1 g/H ([1]; 3 day curative): A (> 80) | PUCCRT 1DP disease control rating, LV activity at 125.1 g/H ([2]; 1 day protectant): A (> 80) | PUCCRT 3DC disease control rating, LV activity at 125.1 g/H ([2]; 3 day curative): A (> 80)

C=CC[C@@H](OCC1CC1)[C@H](C)OC(=O)[C@H](C)NC(=O)c1nccc(OC)c1OCOC(C)=O [Cmpd 1076]
LV activity at 125.1 g/H SEPTTR 1DP (disease control rating) [1]: D | LV activity at 125.1 g/H SEPTTR 3DC (disease control rating) [1]: D | LV activity at 125.1 g/H PUCCRT 1DP (disease control rating) [2]: B (≤ 80) | LV activity at 125.1 g/H PUCCRT 3DC (disease control rating) [2]: B (≤ 80)

CCC(CC)[C@@H](Oc1ccc(F)cc1)[C@H](C)OC(=O)[C@@H](NC(=O)c1nccc(OC)c1OC(C)=O)C(C)C [Cmpd 657]
SEPTTR 1DP, LV activity at 125.1 g/H (% Control rating) [1]: A (> 80) | SEPTTR 3DC, LV activity at 125.1 g/H (% Control rating) [1]: B (≤ 80) | PUCCRT 1DP, LV activity at 125.1 g/H (% Control rating) [2]: A (> 80) | PUCCRT 3DC, LV activity at 125.1 g/H (% Control rating) [2]: B (≤ 80)

COc1cccc(O[C@H](C2CCCC2)[C@H](C)OC(=O)[C@H](C)NC(=O)c2nccc(OC)c2O)c1 [Cmpd 847]
SEPTTR 1DP disease control rating, HV activity at 100 ppm [1, 3]: B (≤ 80) | SEPTTR 3DC disease control rating, HV activity at 100 ppm [1, 4]: A (> 80) | PUCCRT 1DP disease control rating, HV activity at 100 ppm [2, 3]: A (> 80) | PUCCRT 3DC disease control rating, HV activity at 100 ppm [2, 4]: A (> 80)

CC[C@H](NC(=O)c1nccc(OC)c1OC(C)=O)C(=O)O[C@@H](C)[C@@H](COc1ccccc1)Oc1ccccc1 [Cmpd 489]
SEPTTR 1DP, LV activity at 125.1 g/H (% Control rating) [1]: A (> 80) | SEPTTR 3DC, LV activity at 125.1 g/H (% Control rating) [1]: A (> 80) | PUCCRT 1DP, LV activity at 125.1 g/H (% Control rating) [2]: A (> 80) | PUCCRT 3DC, LV activity at 125.1 g/H (% Control rating) [2]: A (> 80)

CCCOC[C@@H](Oc1ccccc1)[C@H](C)OC(=O)[C@H](C)NC(=O)c1nccc(OC)c1O [Cmpd 310]
SEPTTR 1DP disease control rating, HV activity [1]: D | SEPTTR 3DC disease control rating, HV activity [1]: B (≤ 80) | PUCCRT 1DP disease control rating, HV activity [2]: A (> 80) | PUCCRT 3DC disease control rating, HV activity [2]: A (> 80)

COc1ccnc(C(=O)NC(C)C(=O)OC(C)C(Oc2cccc(Cl)c2)C(C)C)c1OC(C)=O (centres unmarked) [Cmpd 857]
SEPTTR 1DP disease control rating, LV activity at 125.1 g/H ([1]; 1 day protectant): B (≤ 80) | SEPTTR 3DC disease control rating, LV activity at 125.1 g/H ([1]; 3 day curative): B (≤ 80) | PUCCRT 1DP disease control rating, LV activity at 125.1 g/H ([2]; 1 day protectant): A (> 80) | PUCCRT 3DC disease control rating, LV activity at 125.1 g/H ([2]; 3 day curative): A (> 80)

CCC(CC)[C@@H](Oc1ccccc1Cl)[C@H](C)OC(=O)[C@@H](NC(=O)c1nccc(OC)c1OC(C)=O)C(C)C [Cmpd 662]
SEPTTR 1DP disease control rating, LV activity at 125.1 g/H ([1]; 1 day protectant): D | SEPTTR 3DC disease control rating, LV activity at 125.1 g/H ([1]; 3 day curative): B (≤ 80) | PUCCRT 1DP disease control rating, LV activity at 125.1 g/H ([2]; 1 day protectant): A (> 80) | PUCCRT 3DC disease control rating, LV activity at 125.1 g/H ([2]; 3 day curative): B (≤ 80)

COc1ccnc(C(=O)NC(C)C(=O)OC(C)C(OC(=O)C(C)C)C(C)C)c1O (centres unmarked) [Cmpd 399]
SEPTTR 1DP disease control rating, HV activity [1]: B (≤ 80) | SEPTTR 3DC disease control rating, HV activity [1]: D | PUCCRT 1DP disease control rating, HV activity [2]: B (≤ 80) | PUCCRT 3DC disease control rating, HV activity [2]: D
